Measurements: paper PMC9898036, “VIP152 is a selective CDK9 inhibitor with pre-clinical in vitro and in vivo efficacy in chronic lymphocytic leukemia” (Leukemia, 2022)
Where two headings read alike, the source gives them in different places.

Experiments:
Assay in all cases: DiscoverX KINOMEscan kinase profiling (468 assays)
Type in all cases: binding
human kinome [1] = biological target: human kinome (Homo sapiens, UniProt O60331); conditions: read-out: Percent Control
Method in brief: (§1)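 DNA-tagged kinases competed for immobilized biotinylated ligands on streptavidin magnetic beads, with bound kinase quantified by qPCR. VIP152 in DMSO was tested against a DMSO control.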

human kinome [2] = biological target: human kinome (Homo sapiens, UniProt Q16816); conditions: read-out: Percent Control
Method in brief: as §1

human kinome [3] = biological target: human kinome (Homo sapiens, UniProt P53350); conditions: read-out: Percent Control
Chain of human kinome (Homo sapiens, UniProt P53350) (P53350 whole entry): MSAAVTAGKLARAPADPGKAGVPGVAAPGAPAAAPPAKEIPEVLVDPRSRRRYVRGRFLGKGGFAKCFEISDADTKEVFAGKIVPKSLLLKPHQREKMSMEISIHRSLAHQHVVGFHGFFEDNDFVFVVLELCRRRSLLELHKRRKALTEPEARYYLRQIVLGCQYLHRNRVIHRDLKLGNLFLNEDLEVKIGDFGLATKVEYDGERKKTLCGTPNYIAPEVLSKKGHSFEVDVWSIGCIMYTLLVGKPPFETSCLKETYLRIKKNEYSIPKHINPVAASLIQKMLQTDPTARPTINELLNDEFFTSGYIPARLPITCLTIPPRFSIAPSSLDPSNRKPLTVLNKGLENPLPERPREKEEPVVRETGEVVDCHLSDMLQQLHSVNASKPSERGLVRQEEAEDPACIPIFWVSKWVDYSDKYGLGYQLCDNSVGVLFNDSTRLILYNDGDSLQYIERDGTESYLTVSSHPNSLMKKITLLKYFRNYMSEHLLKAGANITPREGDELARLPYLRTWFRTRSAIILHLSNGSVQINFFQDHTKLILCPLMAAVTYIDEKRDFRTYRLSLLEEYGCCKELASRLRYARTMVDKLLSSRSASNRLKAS
Method in brief: as §1

human kinome [4] = biological target: human kinome (Homo sapiens, UniProt P04049); conditions: read-out: Percent Control
Chain of human kinome (Homo sapiens, UniProt P04049) (P04049 whole entry): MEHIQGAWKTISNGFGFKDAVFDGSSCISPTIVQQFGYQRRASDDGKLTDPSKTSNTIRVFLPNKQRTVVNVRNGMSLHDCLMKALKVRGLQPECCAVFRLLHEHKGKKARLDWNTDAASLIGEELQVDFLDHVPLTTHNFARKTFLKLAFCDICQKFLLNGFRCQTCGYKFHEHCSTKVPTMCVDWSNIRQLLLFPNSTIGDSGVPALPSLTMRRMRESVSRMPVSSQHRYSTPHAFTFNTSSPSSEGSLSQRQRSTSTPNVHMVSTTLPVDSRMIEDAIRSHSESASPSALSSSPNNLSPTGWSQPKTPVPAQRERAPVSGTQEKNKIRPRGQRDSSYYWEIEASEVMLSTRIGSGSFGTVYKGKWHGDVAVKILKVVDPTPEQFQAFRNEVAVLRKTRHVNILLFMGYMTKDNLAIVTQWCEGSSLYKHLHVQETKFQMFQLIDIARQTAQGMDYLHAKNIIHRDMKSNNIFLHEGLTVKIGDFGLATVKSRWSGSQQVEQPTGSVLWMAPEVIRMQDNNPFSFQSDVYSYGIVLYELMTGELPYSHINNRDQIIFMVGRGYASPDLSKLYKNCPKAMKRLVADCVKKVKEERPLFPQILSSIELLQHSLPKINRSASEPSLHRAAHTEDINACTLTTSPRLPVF
Method in brief: as §1

human kinome [5] = biological target: human kinome (Homo sapiens, UniProt P42685); conditions: FRK; 100 nM; read-out: Percent Control
Method in brief: as §1

human kinome [6] = biological target: human kinome (Homo sapiens, UniProt Q9H093); conditions: kinase SNARK (Entrez NUAK2); compound concentration 1000 nM; read-out: Percent Control
Method in brief: as §1

human kinome [7] = biological target: human kinome (Homo sapiens, UniProt P04629); conditions: kinase TRKA (Entrez NTRK1); compound concentration 1000 nM; read-out: Percent Control
Method in brief: as §1

human kinome [8] = biological target: human kinome (Homo sapiens, UniProt Q9NQU5); conditions: read-out: Percent Control
Chain of human kinome (Homo sapiens, UniProt Q9NQU5) (Q9NQU5 whole entry): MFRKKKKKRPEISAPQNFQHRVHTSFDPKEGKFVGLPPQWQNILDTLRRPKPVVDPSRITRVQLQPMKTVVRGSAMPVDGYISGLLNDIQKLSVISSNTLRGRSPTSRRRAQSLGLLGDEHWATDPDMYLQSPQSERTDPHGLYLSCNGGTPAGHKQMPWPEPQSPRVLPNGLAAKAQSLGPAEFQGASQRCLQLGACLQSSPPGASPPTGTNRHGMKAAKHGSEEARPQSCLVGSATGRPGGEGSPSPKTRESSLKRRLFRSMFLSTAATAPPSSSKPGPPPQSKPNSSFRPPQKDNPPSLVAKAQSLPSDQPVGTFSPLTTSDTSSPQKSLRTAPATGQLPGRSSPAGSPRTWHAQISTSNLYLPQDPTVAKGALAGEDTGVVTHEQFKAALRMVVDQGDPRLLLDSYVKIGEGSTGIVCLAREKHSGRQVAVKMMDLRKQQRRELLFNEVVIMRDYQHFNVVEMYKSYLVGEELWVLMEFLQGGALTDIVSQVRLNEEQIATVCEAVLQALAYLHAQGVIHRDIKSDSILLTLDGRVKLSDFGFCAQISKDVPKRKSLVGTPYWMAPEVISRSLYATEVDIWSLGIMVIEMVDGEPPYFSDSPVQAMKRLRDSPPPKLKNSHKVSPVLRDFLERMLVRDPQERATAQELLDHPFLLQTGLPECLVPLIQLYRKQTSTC
Method in brief: as §1

human kinome [9] = biological target: human kinome (Homo sapiens, UniProt Q14289); conditions: read-out: Percent Control
Chain of human kinome (Homo sapiens, UniProt Q14289) (Q14289 whole entry): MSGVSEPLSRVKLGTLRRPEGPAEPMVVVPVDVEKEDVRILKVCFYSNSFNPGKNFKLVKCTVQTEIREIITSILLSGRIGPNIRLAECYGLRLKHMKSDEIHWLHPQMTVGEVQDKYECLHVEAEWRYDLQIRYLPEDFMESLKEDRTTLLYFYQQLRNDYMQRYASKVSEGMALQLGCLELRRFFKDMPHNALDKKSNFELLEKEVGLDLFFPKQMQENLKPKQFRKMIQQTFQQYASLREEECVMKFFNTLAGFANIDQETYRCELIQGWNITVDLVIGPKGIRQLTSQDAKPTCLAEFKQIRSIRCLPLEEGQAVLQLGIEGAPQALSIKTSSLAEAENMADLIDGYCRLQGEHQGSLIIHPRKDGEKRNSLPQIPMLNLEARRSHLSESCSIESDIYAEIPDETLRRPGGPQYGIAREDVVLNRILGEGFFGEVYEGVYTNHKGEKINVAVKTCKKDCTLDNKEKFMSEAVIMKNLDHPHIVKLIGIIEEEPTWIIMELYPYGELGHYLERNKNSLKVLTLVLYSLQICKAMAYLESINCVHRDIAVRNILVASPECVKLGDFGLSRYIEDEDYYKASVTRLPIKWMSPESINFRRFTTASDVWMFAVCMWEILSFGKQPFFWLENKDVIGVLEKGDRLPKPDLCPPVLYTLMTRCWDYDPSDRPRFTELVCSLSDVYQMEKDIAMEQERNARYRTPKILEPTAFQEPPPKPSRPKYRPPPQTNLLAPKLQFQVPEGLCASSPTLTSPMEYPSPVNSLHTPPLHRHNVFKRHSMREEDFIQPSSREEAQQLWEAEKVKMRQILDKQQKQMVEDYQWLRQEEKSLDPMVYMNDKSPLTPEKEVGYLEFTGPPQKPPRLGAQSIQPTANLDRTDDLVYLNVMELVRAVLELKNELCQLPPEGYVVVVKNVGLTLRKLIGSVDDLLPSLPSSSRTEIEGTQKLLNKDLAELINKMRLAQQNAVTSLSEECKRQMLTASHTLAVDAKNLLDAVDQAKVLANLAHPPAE
Method in brief: as §1

human kinome [10] = biological target: human kinome (Homo sapiens, UniProt Q13464); conditions: kinase ROCK1 (Entrez ROCK1); compound concentration 1000 nM; read-out: Percent Control
Method in brief: as §1

human kinome [11] = biological target: human kinome (Homo sapiens, UniProt P27037); conditions: ACVR2A; 100 nM; read-out: Percent Control
Method in brief: as §1

human kinome [12] = biological target: human kinome (Homo sapiens, UniProt P08581, Y1235D); conditions: MET(Y1235D); 100 nM; read-out: Percent Control
Method in brief: as §1

human kinome [13] = biological target: human kinome (Homo sapiens, UniProt O15146); conditions: MUSK; 100 nM; read-out: Percent Control
Method in brief: as §1

human kinome [14] = biological target: human kinome (Homo sapiens, UniProt P00533); conditions: EGFR; 100 nM; read-out: Percent Control
Method in brief: as §1

human kinome [15] = biological target: human kinome (Homo sapiens, UniProt Q8TDR2); conditions: kinase STK35 (Entrez STK35); compound concentration 1000 nM; read-out: Percent Control
Method in brief: as §1

human kinome [16] = biological target: human kinome (Homo sapiens, UniProt Q99759); conditions: MAP3K3; 100 nM; read-out: Percent Control
Method in brief: as §1

human kinome [17] = biological target: human kinome (Homo sapiens, UniProt Q8N752); conditions: CSNK1A1L; 100 nM; read-out: Percent Control
Method in brief: as §1

human kinome [18] = biological target: human kinome (Homo sapiens, UniProt O75716); conditions: kinase STK16 (Entrez STK16); compound concentration 1000 nM; read-out: Percent Control
Method in brief: as §1

human kinome [19] = biological target: human kinome (Homo sapiens, UniProt P16591); conditions: FER; 100 nM; read-out: Percent Control
Method in brief: as §1

human kinome [20] = biological target: human kinome (Homo sapiens, UniProt Q15835); conditions: GRK1; 100 nM; read-out: Percent Control
Method in brief: as §1

human kinome [21] = biological target: human kinome (Homo sapiens, UniProt Q9BVS4); conditions: kinase RIOK2 (Entrez RIOK2); compound concentration 1000 nM; read-out: Percent Control
Method in brief: as §1

human kinome [22] = biological target: human kinome (Homo sapiens, UniProt Q8NFD2); conditions: ANKK1; 100 nM; read-out: Percent Control
Method in brief: as §1

human kinome [23] = biological target: human kinome (Homo sapiens, UniProt Q13163); conditions: MEK5 (Entrez MAP2K5); 100 nM; read-out: Percent Control
Method in brief: as §1

human kinome [24] = biological target: human kinome (Homo sapiens, UniProt Q15349); conditions: compound concentration 1000 nM, read-out: Percent Control
Chain of human kinome (Homo sapiens, UniProt Q15349) (Q15349 whole entry): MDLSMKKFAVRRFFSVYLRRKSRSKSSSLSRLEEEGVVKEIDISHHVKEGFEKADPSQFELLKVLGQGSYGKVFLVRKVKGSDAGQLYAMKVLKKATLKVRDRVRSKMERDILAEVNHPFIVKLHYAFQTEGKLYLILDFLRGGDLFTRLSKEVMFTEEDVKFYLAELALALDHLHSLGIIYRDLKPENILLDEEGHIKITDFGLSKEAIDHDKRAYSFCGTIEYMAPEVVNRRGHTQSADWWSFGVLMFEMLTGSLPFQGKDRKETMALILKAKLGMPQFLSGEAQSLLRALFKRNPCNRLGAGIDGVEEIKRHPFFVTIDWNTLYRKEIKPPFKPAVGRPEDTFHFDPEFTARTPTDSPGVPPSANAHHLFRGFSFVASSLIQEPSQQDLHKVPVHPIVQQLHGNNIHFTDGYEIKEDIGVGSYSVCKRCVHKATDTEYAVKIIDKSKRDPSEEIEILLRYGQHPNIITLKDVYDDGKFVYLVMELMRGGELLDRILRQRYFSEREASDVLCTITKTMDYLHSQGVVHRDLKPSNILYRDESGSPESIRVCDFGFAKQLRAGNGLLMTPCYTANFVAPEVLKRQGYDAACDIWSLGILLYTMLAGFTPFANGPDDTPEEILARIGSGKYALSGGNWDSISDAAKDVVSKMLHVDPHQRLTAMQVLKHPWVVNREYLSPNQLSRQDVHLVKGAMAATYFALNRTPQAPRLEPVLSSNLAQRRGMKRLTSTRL
Method in brief: as §1

human kinome [25] = biological target: human kinome (Homo sapiens, UniProt Q13233); conditions: MAP3K1; 100 nM; read-out: Percent Control
Method in brief: as §1

human kinome [26] = biological target: human kinome (Homo sapiens, UniProt P00533, G719C); conditions: EGFR(G719C); 100 nM; read-out: Percent Control
Method in brief: as §1

human kinome [27] = biological target: human kinome (Homo sapiens, UniProt P53667); conditions: LIMK1; 100 nM; read-out: Percent Control
Method in brief: as §1

human kinome [28] = biological target: human kinome (Homo sapiens, UniProt Q00536); conditions: read-out: Percent Control
Chain of human kinome (Homo sapiens, UniProt Q00536) (Q00536 whole entry): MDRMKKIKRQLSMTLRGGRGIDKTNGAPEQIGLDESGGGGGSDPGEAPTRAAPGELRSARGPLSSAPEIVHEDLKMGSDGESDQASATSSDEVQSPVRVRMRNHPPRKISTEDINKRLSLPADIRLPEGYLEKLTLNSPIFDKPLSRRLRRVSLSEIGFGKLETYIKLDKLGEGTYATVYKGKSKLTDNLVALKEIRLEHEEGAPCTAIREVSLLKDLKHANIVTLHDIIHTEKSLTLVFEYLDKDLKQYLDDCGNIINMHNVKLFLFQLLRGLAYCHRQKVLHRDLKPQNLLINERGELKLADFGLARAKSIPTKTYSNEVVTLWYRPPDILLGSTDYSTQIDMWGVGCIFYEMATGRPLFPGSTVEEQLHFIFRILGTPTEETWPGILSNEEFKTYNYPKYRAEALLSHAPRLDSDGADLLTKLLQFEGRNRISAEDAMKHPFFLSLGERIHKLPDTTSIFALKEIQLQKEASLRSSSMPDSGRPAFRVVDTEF
Method in brief: as §1

human kinome [29] = biological target: human kinome (Homo sapiens, UniProt O60674); conditions: JAK2(JH1domain-catalytic); 100 nM; read-out: Percent Control
Method in brief: as §1

Chain of human kinome (Homo sapiens, UniProt O60331) (O60331 whole entry): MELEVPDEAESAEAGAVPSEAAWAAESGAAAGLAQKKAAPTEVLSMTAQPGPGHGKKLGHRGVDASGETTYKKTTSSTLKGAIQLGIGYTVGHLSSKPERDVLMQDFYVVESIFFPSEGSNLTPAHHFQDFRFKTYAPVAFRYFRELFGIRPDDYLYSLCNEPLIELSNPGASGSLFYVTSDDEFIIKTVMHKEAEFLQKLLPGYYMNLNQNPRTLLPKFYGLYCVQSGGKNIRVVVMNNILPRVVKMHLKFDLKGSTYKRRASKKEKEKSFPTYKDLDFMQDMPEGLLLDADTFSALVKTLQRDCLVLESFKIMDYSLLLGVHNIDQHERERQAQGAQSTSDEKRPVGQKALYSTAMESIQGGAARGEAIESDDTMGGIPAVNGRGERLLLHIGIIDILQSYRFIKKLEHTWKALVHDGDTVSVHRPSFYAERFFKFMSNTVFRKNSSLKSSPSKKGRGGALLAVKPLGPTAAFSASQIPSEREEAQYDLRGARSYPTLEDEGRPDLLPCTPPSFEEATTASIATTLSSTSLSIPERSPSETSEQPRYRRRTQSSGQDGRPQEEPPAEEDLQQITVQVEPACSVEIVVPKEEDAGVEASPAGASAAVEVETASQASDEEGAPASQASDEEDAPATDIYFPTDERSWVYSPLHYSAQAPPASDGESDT

Which results are given for `COc1cc(F)ccc1-c1cc(Nc2cc(CS(C)(=N)=O)ccn2)ncc1F` (stereo not shown) [VIP152]?
remaining binding at 0.1 µM (human kinome [1]; PIP5K1C, 100 nM): 60%; remaining binding at 1 µM (human kinome [1]; kinase PIP5K1C (Entrez PIP5K1C), compound concentration 1000 nM): 92%; remaining binding at 0.1 µM (human kinome [2]; PHKG1, 100 nM): 97%; remaining binding at 1 µM (human kinome [2]; kinase PHKG1 (Entrez PHKG1), compound concentration 1000 nM): 96%; remaining binding at 0.1 µM (human kinome [3]; PLK1, 100 nM): 100%; remaining binding at 1 µM (human kinome [3]; kinase PLK1 (Entrez PLK1), compound concentration 1000 nM): 89%; remaining binding at 0.1 µM (human kinome [4]; RAF1, 100 nM): 100%; remaining binding at 1 µM (human kinome [4]; kinase RAF1 (Entrez RAF1), compound concentration 1000 nM): 96%; remaining binding at 0.1 µM (human kinome [5]): 100%; remaining binding at 1 µM (human kinome [6]): 78%; remaining binding at 1 µM (human kinome [7]): 9.8%; remaining binding at 0.1 µM (human kinome [8]; PAK6, 100 nM): 100%; remaining binding at 1 µM (human kinome [8]; kinase PAK6 (Entrez PAK6), compound concentration 1000 nM): 91%; remaining binding at 0.1 µM (human kinome [9]; PYK2 (Entrez PTK2B), 100 nM): 100%; remaining binding at 1 µM (human kinome [9]; kinase PYK2 (Entrez PTK2B), compound concentration 1000 nM): 90%; remaining binding at 1 µM (human kinome [10]): 57%; remaining binding at 0.1 µM (human kinome [11]): 91%; remaining binding at 0.1 µM (human kinome [12]): 82%; remaining binding at 0.1 µM (human kinome [13]): 99%; remaining binding at 0.1 µM (human kinome [14]): 100%; remaining binding at 1 µM (human kinome [15]): 95%; remaining binding at 0.1 µM (human kinome [16]): 100%; remaining binding at 0.1 µM (human kinome [17]): 100%; remaining binding at 1 µM (human kinome [18]): 44%; remaining binding at 0.1 µM (human kinome [19]): 100%; remaining binding at 0.1 µM (human kinome [20]): 95%; remaining binding at 1 µM (human kinome [21]): 77%; remaining binding at 0.1 µM (human kinome [22]): 100%; remaining binding at 0.1 µM (human kinome [23]): 100%; remaining binding at 1 µM (human kinome [24]; kinase RSK3(Kin.Dom.1-N-terminal) (Entrez RPS6KA2)): 98%; remaining binding at 1 µM (human kinome [24]; kinase RSK3(Kin.Dom.2-C-terminal) (Entrez RPS6KA2)): 92%; remaining binding at 0.1 µM (human kinome [25]): 100%; remaining binding at 0.1 µM (human kinome [26]): 100%; remaining binding at 0.1 µM (human kinome [27]): 100%; remaining binding at 0.1 µM (human kinome [28]; PCTK1 (Entrez CDK16), 100 nM): 83%; remaining binding at 1 µM (human kinome [28]; kinase PCTK1 (Entrez CDK16), compound concentration 1000 nM): 24%; remaining binding at 0.1 µM (human kinome [29]): 100%
